Source: patent US20070107072A1, “Transgenic amphibian models for lymphatic vessel development” (priority 2003, published 2007)

System: Prox-1
Assay: Prox-1 antisense morpholino knockdown in Xenopus embryos, whole-mount in situ hybridisation for Prox1 and morphometry
Type: in vivo, Xenopus laevis
Conditions: for reduction of total Prox-1 positive area: as compared to control tadpoles
Experimental: In a second example 25 ng of Prox-1 antisense morpholino oligonucleotides (Prox-1 MOs) was microinjected in a 1-cell stage Xenopus, in order to investigate the influence on the development of the lymphatic system. Prox1 is known to be expressed exclusively in lymphatic but not in blood vascular endothelial cells. Xenopus laevis embryos were obtained by artificial fertilization using standard techniques and sexually mature adult frogs purchased from Nasco Biology (Fort Atkinson, Wis.). The Prox-1 MOs, 5′-[…]-3′, were purchased from Gene Tools (Corvallis, Oreg.) and designed around the ATG codon. As ATG-specific morpholinos lower translation—but not transcription—of the target gene, we used whole embryo mount in situ hybridisation for Prox1 to visualize the defects in lymphatic vascular development. The 5′ nucleotide sequence of Prox-1 was obtained using 5′ RACE using primers based on published Xenopus laevis cDNA (GenBank # AB008773). To visualise Prox-1 expression pattern, embryos were collected at different developmental stages (according to Nieuwkoop and Faber), fixed and submitted to whole-mount in situ hybridisation according Harland (Harland, 1991), with the exception that BM purple was used as a substrate. The Prox-1 digoxigenin-labeled riboprobe used was constructed from a 950 bp cDNA fragment (GenBank # AB008773), which was cloned into pGEMTeasy and linearised with AatII to get SP6 antisense probe. After in situ hybridisation the embryos where bleached, cleared and stored in glycerol until analysed. Analysis was performed using a Zeiss Axioplan 2 imaging microscope equipped with a Axiocam HrC camera and the KS300 morphometry software. The total ISH-region was divided into 3 different regions where the first region represents the ventral side the tail, a second region where the dorsal migration of prox-1 positive cells takes place and finally a third region which represents the dorsal side. For all regions, length of positive staining was measured, followed by segmentation of the ISH-area by hue, lightness and saturation for defining the true stained area. A value of migration is given by the cell that traveled furthest across the tail. In non-morpholino treated Xenopus we observed that the normal lymphatic system starts developing at the jugular region of the tadpole around developmental stage 29/30. Apart from expression in non-lymphatic tissues such as the pronephros and the eye, the Prox-1 expression at this stage seems to be restricted to the jugular region. At the following stage (31-32), the staining in the jugular region is expanded to what will become the future lymphsacs. The region of the future anterior lymph hearts as well as the ventral caudal region show intense Prox-1 positive signal too. By stage 33/34 the prox positive cells in the caudal region start the formation of the ventral caudal lymphatic vessel. Prox-1 positive lymphatic cells are migrating from the ventral to the dorsal region and this event is culminating at stage 35/36 where the highest amount of migrating cells can be accounted for. The formation of what eventually will become the dorsal lymphatic vessel is also initiated at this stage. By stage 37-38 a majority of the prox positive cells have reached the dorsal side where they are contributing to the formation of dorsal caudal lymphatic vessels. […] In the tail of the Prox-1 morphants dorsal migration of Pro-1 positive cells is dearly impaired. […]

## 5′-CAGGCATCACTGGACTGTTATTGTG-3′ (all phosphorodiamidate morpholino (PMO)) [Prox-1 MOs, Prox-1 antisense morpholino oligonucleotides purchased from Gene Tools, designed around the ATG codon]
Prox1 knockdown
  formation of the lymph hearts and the rostral lymphatic structures: impaired
Prox1 morphants
  cardiogenesis (looping, septation and beating of the heart, and blood circulation): all normal
  development of blood vessels (number of Msr-positive intersomitic vessels in anterior trunk, Msr-positive area in posterior trunk): not affected
Prox-1 morphants
  Prox-1 staining of the anterior region: clearly reduced
Beyond stage 45
  edema in the head and anterior trunk: manifest edema in the head and anterior trunk developed in most Prox1 knockdown embryos
Stage 33/34
  reduction of total Prox-1 positive area: about 60%
Stage 35/36, 25 ng microinjected in 1-cell stage, vs control tadpoles
  reduction of dorsal migration of Prox-1 positive cells in the tail: about 55%
Stage 35/36
  reduction of total Prox-1 positive area: ~50%
Stage 37/38, 25 ng microinjected in 1-cell stage
  dorsal migration of Prox-1 positive cells in the tail: significantly reduced
Stage 37/38
  reduction of total Prox-1 positive area: ~35%
